Laboratory results as given in the supplement of paper PMC5908809.

Experiments:
[1] = test system: normal NK cells expanded with K562-aAPC; test: drug sensitivity score (DSS) (DSS units); higher = more sensitive; extreme values may be limits of the assay; conditions: 72 h; IL-2 2.5 ng/mL
Protocol: (§1)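 Drug sensitivity and resistance testing on K562-aAPC-expanded normal NK cells: 5 concentrations (10-fold steps over a 10,000-fold range), 72 h at 37 °C, viability by CellTiter-Glo normalised to DMSO and benzethonium chloride controls; DSS from the fitted curve.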

NK-92 (IL-2 2.5 ng/mL) [2] = test: as above; conditions: 72 h
NK-YS (IL-2 2.5 ng/mL) [3] = test: as above; conditions: 72 h
[4] = test system: normal primary NK cells, pool 3 (3 donors) (IL-2 2.5 ng/mL); test: as above; conditions: 72 h
[5] = test system: normal primary NK cells, pool 1 (3 donors), resting (IL-2 0 ng/mL); test: as above; conditions: 72 h
KHYG-1 (IL-2 2.5 ng/mL) [6] = test: as above; conditions: 72 h
[7] = test system: normal primary NK cells, pool 1 (3 donors) (IL-2 2.5 ng/mL); test: as above; conditions: 72 h
[8] = test system: normal primary NK cells, pool 2 (3 donors) (IL-2 2.5 ng/mL); test: as above; conditions: 72 h
SNK-6 (IL-2 2.5 ng/mL) [9] = test: as above; conditions: 72 h
KAI3 (IL-2 2.5 ng/mL) [10] = test: as above; conditions: 72 h
NKL (IL-2 2.5 ng/mL) [11] = test: as above; conditions: 72 h
IMC-1 (IL-2 20 ng/mL) [12] = test: as above; conditions: 72 h
YT (IL-2 2.5 ng/mL) [13] = test: as above; conditions: 72 h
DERL-7 (IL-2 2.5 ng/mL) [14] = test: as above; conditions: 72 h
NK-92 (IL-2 2.5 ng/mL) [15] = test: percent inhibition of viability; higher = more inhibition; conditions: 72 h
NK-YS (IL-2 2.5 ng/mL) [16] = test: as above; conditions: 72 h
[17] = test system: normal primary NK cells, pool 3 (3 donors) (IL-2 2.5 ng/mL); test: as above; conditions: 72 h
[18] = test system: normal primary NK cells, pool 1 (3 donors), resting (IL-2 0 ng/mL); test: as above; conditions: 72 h
KHYG-1 (IL-2 2.5 ng/mL) [19] = test: as above; conditions: 72 h
[20] = test system: normal primary NK cells, pool 1 (3 donors) (IL-2 2.5 ng/mL); test: as above; conditions: 72 h
[21] = test system: normal primary NK cells, pool 2 (3 donors) (IL-2 2.5 ng/mL); test: as above; conditions: 72 h
SNK-6 (IL-2 2.5 ng/mL) [22] = test: as above; conditions: 72 h
KAI3 (IL-2 2.5 ng/mL) [23] = test: as above; conditions: 72 h
NKL (IL-2 2.5 ng/mL) [24] = test: as above; conditions: 72 h
IMC-1 (IL-2 20 ng/mL) [25] = test: as above; conditions: 72 h
YT (IL-2 2.5 ng/mL) [26] = test: as above; conditions: 72 h
DERL-7 (IL-2 2.5 ng/mL) [27] = test: as above; conditions: 72 h
[28] = test system: normal NK cells expanded with K562-aAPC; test: as above; conditions: 72 h, IL-2 2.5 ng/mL
Protocol: as §1

N#CC(c1ccnc(OCc2ccc(CN3CCOCC3)cc2)n1)c1nc2ccccc2s1 (configuration not stated) [Bentamapimod] (max concentration tested 10000 nM)
Conditions | drug sensitivity score
DERL-7 (IL-2 2.5 ng/mL) [14] | 4.97
IMC-1 (IL-2 20 ng/mL) [12] | 4.25
KAI3 (IL-2 2.5 ng/mL) [10] | 4.12
KHYG-1 (IL-2 2.5 ng/mL) [6] | 5.69
NK-92 (IL-2 2.5 ng/mL) [2] | 4.21
NK-YS (IL-2 2.5 ng/mL) [3] | 4.74
NKL (IL-2 2.5 ng/mL) [11] | 6.1
SNK-6 (IL-2 2.5 ng/mL) [9] | 0
YT (IL-2 2.5 ng/mL) [13] | 5.2
[1] | 3.1
[4] | 0.34
[5] | 0
[7] | 0
[8] | 1.6

percent inhibition of viability [%]
Conditions | 1 nM | 10 nM | 100 nM | 1000 nM | 10000 nM
DERL-7 (IL-2 2.5 ng/mL) [27] | -1.64 | -1.25 | -0.32 | 14.8 | 51.5
IMC-1 (IL-2 20 ng/mL) [25] | 0.67 | -4.76 | 0.93 | 6.64 | 58.2
KAI3 (IL-2 2.5 ng/mL) [23] | -1.88 | -7.11 | -2.63 | 14.7 | 40.9
KHYG-1 (IL-2 2.5 ng/mL) [19] | -0.61 | -1.53 | 4.6 | 13.5 | 64
NK-92 (IL-2 2.5 ng/mL) [15] | -0.51 | -7.45 | -6.19 | 10.8 | 47.6
NK-YS (IL-2 2.5 ng/mL) [16] | -3.99 | -3.72 | 3.63 | 20.3 | 47.6
NKL (IL-2 2.5 ng/mL) [24] | -15.9 | -16.8 | -9.05 | 13.2 | 71.2
SNK-6 (IL-2 2.5 ng/mL) [22] | 8.11 | -3.58 | -13.1 | -25.4 | 8.78
YT (IL-2 2.5 ng/mL) [26] | -4.27 | -0.56 | 3.3 | 13.5 | 56.8
[17] | -6.62 | -9.78 | -6.35 | -8.64 | 19.9
[18] | 3.62 | 7.45 | -14.2 | -14.4 | -16.2
[20] | -3.1 | -0.66 | -15.6 | -7.74 | 4.64
[21] | -16.9 | -6.81 | -3.2 | -3.66 | 38.2
[28] | 1.11 | -7.13 | 0.02 | 9.12 | 35.7

CN(C)c1cc2c(cc1Sc1nc3c(N)nccc3n1CCNCC(C)(C)C)OCO2 [CUDC-305] (max concentration tested 10000 nM)
Conditions | drug sensitivity score
DERL-7 (IL-2 2.5 ng/mL) [14] | 21.5
IMC-1 (IL-2 20 ng/mL) [12] | 18.2
KAI3 (IL-2 2.5 ng/mL) [10] | 23.5
KHYG-1 (IL-2 2.5 ng/mL) [6] | 19.4
NK-92 (IL-2 2.5 ng/mL) [2] | 20.4
NK-YS (IL-2 2.5 ng/mL) [3] | 21.7
NKL (IL-2 2.5 ng/mL) [11] | 17.9
SNK-6 (IL-2 2.5 ng/mL) [9] | 16
YT (IL-2 2.5 ng/mL) [13] | 18.2
[1] | 20.9
[4] | 15.8
[5] | 12.7
[7] | 17.8
[8] | 17

percent inhibition of viability [%]
Conditions | 1 nM | 10 nM | 100 nM | 1000 nM | 10000 nM
DERL-7 (IL-2 2.5 ng/mL) [27] | -1.72 | -0.9 | 22.4 | 101 | 101
IMC-1 (IL-2 20 ng/mL) [25] | -5.61 | -0.06 | 1.88 | 100 | 101
KAI3 (IL-2 2.5 ng/mL) [23] | -0.9 | -0.19 | 41.5 | 108 | 108
KHYG-1 (IL-2 2.5 ng/mL) [19] | -1.89 | -3.69 | 6.61 | 107 | 111
NK-92 (IL-2 2.5 ng/mL) [15] | -12 | -2.97 | 13.8 | 103 | 107
NK-YS (IL-2 2.5 ng/mL) [16] | -4.26 | -6.26 | 23.7 | 108 | 109
NKL (IL-2 2.5 ng/mL) [24] | -12.3 | -13.6 | 3.23 | 97.1 | 95.2
SNK-6 (IL-2 2.5 ng/mL) [22] | -24.7 | -25.3 | -1.59 | 89.5 | 89.3
YT (IL-2 2.5 ng/mL) [26] | -8.17 | -8.94 | 5.06 | 96.3 | 102
[17] | -11.7 | 2.98 | 12 | 77.3 | 88.5
[18] | -0.67 | 17.6 | 27.6 | 43.1 | 69.2
[20] | 3.05 | 11.3 | 19.7 | 84.3 | 92.8
[21] | -9.1 | 7.74 | 23 | 77.7 | 86.7
[28] | -9.36 | -5.57 | 18.3 | 98.9 | 99.5

C=CC(=O)Nc1cc2c(Nc3ccc(F)c(Cl)c3)ncnc2cc1OCCCN1CCOCC1 [Canertinib] (max concentration tested 10000 nM)
Conditions | drug sensitivity score
DERL-7 (IL-2 2.5 ng/mL) [14] | 10.9
IMC-1 (IL-2 20 ng/mL) [12] | 4.78
KAI3 (IL-2 2.5 ng/mL) [10] | 11.2
KHYG-1 (IL-2 2.5 ng/mL) [6] | 6.47
NK-92 (IL-2 2.5 ng/mL) [2] | 10.8
NK-YS (IL-2 2.5 ng/mL) [3] | 8.03
NKL (IL-2 2.5 ng/mL) [11] | 10.3
SNK-6 (IL-2 2.5 ng/mL) [9] | 5.87
YT (IL-2 2.5 ng/mL) [13] | 8.07
[1] | 9.72
[4] | 10.3
[5] | 16.2
[7] | 15.9
[8] | 12.6

percent inhibition of viability [%]
Conditions | 1 nM | 10 nM | 100 nM | 1000 nM | 10000 nM
DERL-7 (IL-2 2.5 ng/mL) [27] | -1.22 | 3.31 | 7.19 | 46.1 | 101
IMC-1 (IL-2 20 ng/mL) [25] | -13.9 | -4.18 | -9.88 | -11.9 | 99.7
KAI3 (IL-2 2.5 ng/mL) [23] | -7.79 | -2.37 | 3.26 | 43.7 | 104
KHYG-1 (IL-2 2.5 ng/mL) [19] | -9.72 | -6.52 | -7.64 | 4.13 | 105
NK-92 (IL-2 2.5 ng/mL) [15] | 3.42 | 2.68 | 6.81 | 39.8 | 104
NK-YS (IL-2 2.5 ng/mL) [16] | -6.82 | -1.19 | -0.2 | 14.6 | 103
NKL (IL-2 2.5 ng/mL) [24] | -12.1 | -11.6 | -5.5 | 34.5 | 106
SNK-6 (IL-2 2.5 ng/mL) [22] | -13 | -20.2 | -15.9 | 2.62 | 99.5
YT (IL-2 2.5 ng/mL) [26] | -5.49 | -3.57 | 3.25 | 14.8 | 103
[17] | -4.75 | 1.46 | 0.7 | 34.3 | 99.2
[18] | 2.65 | 15.7 | 18.4 | 74.2 | 97
[20] | -5.89 | 6.82 | 13.3 | 76.1 | 99.2
[21] | -7.41 | -1.65 | 8.39 | 58.4 | 96.8
[28] | -1.69 | -1.95 | -1.57 | 28.3 | 100
